Source: PMC11117691, “Flipping the GPCR Switch: Structure-Based Development of Selective Cannabinoid Receptor 2 Inverse Agonists” (ACS Central Science, 2024)

Key:
hCB2R [1] = target: T1, hCB2R (Homo sapiens, UniProt P34972); assay type: cell-based; design: expressed in transfected cells; host or cells: HEK293TR cells, tetracycline-induced, live cells; conditions: HEK293TR-CB2R-nLuc cells, representative of N = 3
Protocol: HEPES. Following the wash, assay buffer containing 10 μM furimazine, 90 μL/well was added
to the wells. The plate was then incubated at 37 °C for 15 minutes to allow the nanoLuc substrate
furimazine to enter the cells. Three BRET cycles of 1-minute intervals were performed to assess
basal BRET levels, following which 10 μL of each compound, diluted in assay buffer was added
to the assay plate, which was read at 1-minute intervals for 30 minutes.
Buffer containing 10% DMSO (1% final) served as the vehicle control and
The assay buffer used to profile compounds in the CB 2R Gi-CASE system consisted of HBSS
containing 0.02% pluronic F127, 0.5% BSA and 5 mM HEPES. The reference compounds HU -
polypropylene plate. 0.5 µL of the reference and test compound serial dilutions was then added to
a white 384 well OptiplateTM (PerkinElmer) containing 39.5 μL of assay buff er. Finally, the CB 2R
membranes containing the G i-CASE biosensor were thawed and added into assay buffer containing
50 µM furimazine. Membranes (10 μL) were added to the assay plate at a final concentration of 5
µg/well. The total assay volume was 50 µL.

hCB2R [2] = target: T1, hCB2R; assay: TR-FRET kinetic binding assay at CB2R; design: expressed in transfected cells; host or cells: HEK293-TR cells, tetracycline-induced; membrane preparations; conditions: for koff / kon / τ (receptor residence time) / Kd: hCB2R-HEK293 membranes, mean N = 3; for Kd: kinetic Kd
hCB2R [3] = target: T1, hCB2R; assay: TR-FRET saturation binding assay at CB2R; design: expressed in transfected cells; host or cells: HEK293-TR cells, tetracycline-induced; membrane preparations; conditions: room temperature; for Kd: TR-FRET, HEK293 membranes of SNAP-Lumi4-Tb labeled hCB2R
hCB2R [4] = target: T1, hCB2R; assay: cAMP HTRF assay in hCB2R-CHO cells; assay type: cell-based; design: expressed in transfected cells; conditions: for EC50: hCB2R-CHO cells, forskolin stimulated, mean N = 3
Text: One of the canonical signaling pathways of CB2R involves association with Gαi/o proteins, which elicit reversible inhibition of adenylyl cyclase resulting in a decrease of cellular cAMP levels and suppression of protein kinase A activity.[67] Consequently, we have investigated the change in cAMP levels upon probe addition using homogeneous time-resolved fluorescence (HTRF) cAMP assay (Table 3).
Homogeneous Time-Resolved Fluorescence (HTRF) cAMP assay
The homogeneous time-resolved fluorescence (HTRF) cAMP assay was conducted according to the manufacturer’s protocol for the cAMP-Gs Dynamic kit (Cisbio). Briefly, the CHO cell line stably overexpressing CB2R was maintained in Ham’s F12 supplemented with 10% FBS, penicillin (100 U/mL, Gibco-ThermoFisher), streptomycin (100 μg/mL, Gibco-ThermoFisher) and G418 (400 μg/mL, ThermoFisher). For CB2R compounds test, the cells were harvested with Cell Dissociation Buffer, resuspended in F-12 K at 0.4×10^6 cells/mL, and dispensed into 384-well low volume plates at 2000 cells/5 μL per well. The cells were stimulated with compounds diluted in Stimulation Buffer (2.5 μL/well) for 15 min at room temperature, followed by the addition of forsklin (2.5 μL 25 μM). After 15 mins incubation, reactions were stopped by 5 μL/well cAMP-d2 conjugate working solution followed by 5 μL/well of anti-cAMP cryptate working solution. After incubation for 1 h at room temperature, the plates were read in a PerkinElmer Envision reader for Time-Resolved Förster Resonance Energy Transfer (TR-FRET) at 620 nm and 665 nm.
β–arrestin recruitment assay
SNAP-tagged human CB2R HEK293-TR cells were maintained in a humidified environment at 37 °C and 5% CO2 in Dulbecco’s modified Eagle’s medium (DMEM) with 10% fetal bovine serum (FBS) containing blasticidin (5 µg/mL; Invitrogen) and (Zeocin; 20 µg/mL; Invitrogen). For receptor-inducible expression, cells were seeded into t175 cm2 flasks, grown to 70% confluence and DMEM containing 1 µg/ml tetracycline added.
HEK293TR-CB2R-nLuc cells expressing a fluorescently labelled β-arrestin protein were maintained in a humidified environment at 37 °C and 5% CO2 in Dulbecco’s modified Eagle’s medium (DMEM) with 10% fetal bovine serum (FBS) containing blasticidin (5 µg/mL; Invitrogen), Zeocin (20 µg/mL; Invitrogen) and G418 (0.2 mg/mL; Invitrogen) and used to assess compound stimulated β-arrestin recruitment to the human CB2R. Cultured cells were harvested upon reaching 70% confluency and plated at a seeding density of 50,000 cells per well. The cells were grown for 48 h until they reached confluency and then stimulated with 1 μg/mL tetracycline for a further 48 h to induce CB2R expression. Cell culture media was then aspirated from the wells and the cells were washed with assay buffer, 100 μL/well HBSS containing 0.5% BSA and 5 mM

hCB2R [5] = target: T1, hCB2R; assay: BRET Gi-CASE G protein recruitment membrane assay; assay type: biochemical; design: expressed in transfected cells; host or cells: HEK293-TR cells, tetracycline-induced; membrane preparations; conditions: for EC50: hCB2R-HEK293 T-REx membranes, mean N = 3–4, read-out: pEC50 (Gi-CASE G protein recruitment) (converted)
rat CB2R = assay: Live cell fluorescent Ca2+ imaging (Fluo-4AM) in AtT-20(rCB2R) cells; assay type: cell-based; conditions: 20 μM, live AtT-20(rCB2R) cells; HU-308 added after (S)-3/(R)-3
Protocol: Live AtT-20 cells overexpressing rat CB2R [AtT-20(rCB2R)] were treated with Fluo-4AM Ca^2+ dye and imaged by confocal microscopy (Figure 7). […] Ionomycin was added at the end of the experiment to saturate Ca^2+ levels.
Culture media (D10): Contains high glucose DMEM (450 mL, Gibco, #11965-092), FBS (50 mL, HyClone’s USDA tested, #SH30910), antibiotic Penicillin-strep (2.5 mL, Gibco, #15070).
Sterile filtered and aliquoted.
Culture media (D10) with hygromycin-B selection: Contains high glucose DMEM (450 mL, Gibco, #11965-092), FBS (50 mL, HyClone’s USDA tested, #SH30910), antibiotic Penicillin-strep (2.5 mL, Gibco, #15070). Sterile filtered and aliquoted. Selection maintained with Hygromycin-B (200 µg/mL, Thermo Fisher Scientific, #10687010).
Imaging buffer: Contains (in mM): 115 NaCl, 1.2 CaCl2, 1.2 MgCl2, 1.2 K2HPO4, 20 HEPES, 20 D-glucose. Adjusted to pH 7.4 with NaOH. Sterile filtered and aliquoted.
AtT-20 wild type (WT) and overexpressing rat CB2R cells (AtT-20(rCB2R)) were cultured in D10 culture media. […]
Fluorescence images were acquired with an Olympus Fluoview 1200 laser scanning confocal microscope using a 63× objective. […] For a direct comparison of the AtT-20(rCB2R) and wild type cells, one well of each genotype was labelled in parallel, and the identical settings on the confocal microscope were used between wells to accurately compare the dye fluorescence intensities.

[6] = test system: CB2R-mediated phosphorylation of endogenous ERK1/2; assay: AlphaScreen SureFire phospho-ERK assay in CB2R inducible HCC1954 cells; assay type: cell-based; conditions: 1 μM, 30 min, versus vehicle
Protocol: Activation of CB2R is associated with downstream stimulation of mitogen-activated protein kinases, such as ERK1/2, mediated via either Gβγ or β-arrestins.[70],[71] We have tested representative high-affinity fluorescent probe (R)-2 for CB2R-mediated phosphorylation of endogenous ERK1/2 in a CB2R inducible breast cancer HCC1954 cell line using the AlphaScreen SureFire phospho-ERK assay (Figure 6). […] (1 μM), or (R)-2 (1 μM) for 30 min. Following cell lysis, lysates were incubated with a mixture containing donor and acceptor beads for 2 h at room temperature and the luminescence emission signal was measured.
For ERK phosphorylation assay an inducible HCC1954 breast cancer cell line expressing CB2R […]
ERK1/2 phosphorylation was measured using AlphaScreen® SureFire® p‐ERK 1/2 assay kit according to manufacturer instructions (PerkinElmer) . Briefly, HCC1954 cells were seeded at a density of 100 000 cells/well in poly -D-lysine coated 96-well plates and incubated in absence or presence of 1 µg/ mL doxycycline for 24 h. On the next day prior to assay, cells were serum-starved for 2 h at 37°C. […] The plate was incubated for 2 h and ERK1/2 phosphorylation was measured on CLARIOstar® Plus Multimode Plate Reader (BMG Labtech, Germany), using a ratio of 620/570 nm. […]
Statistical significance was determined by one-way ANOVA followed by Tukey's post hoc test.

[7] = normalized to agonist CP-55,940 response (100%) and basal level (0%)

T1 sequence (P34972 whole entry): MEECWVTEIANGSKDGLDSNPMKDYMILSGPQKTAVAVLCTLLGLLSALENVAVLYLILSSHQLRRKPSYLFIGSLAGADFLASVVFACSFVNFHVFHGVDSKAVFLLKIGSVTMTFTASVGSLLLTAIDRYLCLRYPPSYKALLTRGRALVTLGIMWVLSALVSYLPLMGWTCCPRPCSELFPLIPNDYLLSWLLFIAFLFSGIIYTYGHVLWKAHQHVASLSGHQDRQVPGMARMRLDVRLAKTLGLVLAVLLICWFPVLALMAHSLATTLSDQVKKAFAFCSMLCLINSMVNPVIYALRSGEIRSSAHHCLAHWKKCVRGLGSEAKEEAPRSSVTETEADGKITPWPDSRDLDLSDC

COc1cc(C(C)(C)C(CCCCCN=[N+]=[N-])c2ccccc2)cc(OC)c1C1C=C(CN)C2CC1C2(C)C [(R)-1]
β-arrestin recruitment (BRET signal) (hCB2R [1]): Baseline BRET signal was retained
koff (hCB2R [2]; 37 °C): 13.9 10^–2 min^–1
kon (hCB2R [2]; 37 °C): 12.0 10^6 M^–1 min^–1
τ (receptor residence time) (hCB2R [2]; 37 °C): 7.19 min
Kd (hCB2R [2]; 37 °C): 11.6 nM
Kd (hCB2R [3]): 39.1 nM
fold greater binding affinity for CB2R in comparison to (S)-1 (hCB2R [3]; ratio of Kd values): 12 fold
EC50 (hCB2R [4]): 112 nM
Emax (cAMP) (hCB2R [4]; [7]): –44%
EC50 (hCB2R [5]): 158 nM

COc1cc(C(C)(C)C(CCCCCN=[N+]=[N-])c2ccccc2)cc(OC)c1C1C=C(CN)C2CC1C2(C)C [(S)-1]
β-arrestin recruitment (BRET signal) (hCB2R [1]): Baseline BRET signal was retained
koff (hCB2R [2]; 37 °C): 115 10^–2 min^–1
kon (hCB2R [2]; 37 °C): 157000 M⁻¹ s⁻¹
τ (receptor residence time) (hCB2R [2]; 37 °C): 0.87 min
Kd (hCB2R [2]; 37 °C): 122 nM
Kd (hCB2R [3]): 476 nM
EC50 (hCB2R [4]): 2690 nM
Emax (hCB2R [4]; [7]): -44%
fold increased potency of G protein recruitment over adenylyl cyclase inhibition (hCB2R [5]; Gi-CASE pEC50 versus cAMP pEC50): 14 fold
EC50 (hCB2R [5]): 191 nM

C#CCCC(=O)NCC1=CC(c2c(OC)cc(C(C)(C)C(CCCCCN=[N+]=[N-])c3ccccc3)cc2OC)C2CC1C2(C)C [(S)-3/(R)-3]
intracellular Ca2+ (Fluo-4AM fluorescence) (rat CB2R): did not elicit increase in Fluo-4AM fluorescence

C#CCCC(=O)NCC1=CC(c2c(OC)cc(C(C)(C)C(CCCCCN=[N+]=[N-])c3ccccc3)cc2OC)C2CC1C2(C)C [(S)-3]
β-arrestin recruitment (BRET signal) (hCB2R [1]): Baseline BRET signal was retained
koff (hCB2R [2]; 37 °C): 4.96 10^–2 min^–1
kon (hCB2R [2]; 37 °C): 44.3 10^6 M^–1 min^–1
τ (receptor residence time) (hCB2R [2]; 37 °C): 20.2 min
Kd (hCB2R [2]; 37 °C): 1.12 nM
ΔG (Experimental) (hCB2R [2]; ΔG exp = RT ln(Kd), T = 310 K, from experimental Kd values): –12.7 kcal mol-1
Kd (hCB2R [3]): 2.1 nM
EC50 (hCB2R [4]): 40.7 nM
Emax (cAMP) (hCB2R [4]; [7]): –49%
EC50 (hCB2R [5]): 30.9 nM

CCCCCCC(C)(C)c1cc(OC)c([C@@H]2C=C(CO)[C@@H]3C[C@H]2C3(C)C)c(OC)c1 [HU-308, reference compound]
intracellular Ca2+ (Fluo-4AM fluorescence) (rat CB2R): triggered a robust fluorescence spike

CCCC(C)(C)c1ccc2c(c1)OC(C)(C)[C@@H]1CC=C(C)C[C@@H]21 [JWH133]
ERK1/2 phosphorylation level ([6]; CB2R expression induced with DOX (1 μg/mL)): effectively stimulated ERK1/2 phosphorylation
ERK1/2 phosphorylation level ([6]; absence of CB2R expression inducer (DOX)): remained the same

RO7568997 [reference compound]
dissociation rate of fluorescent tracer (hCB2R [2]; tracer of competition-association assay, value fixed in fitting, 37 °C): 1.13 min⁻¹
